Where “and” joins values, the source holds several entries; their conditions need not be identical. Identical values can stand only once.
Settings: Crystal, Calculated from knudsen effusion weight loss

NNC(=O)c1cccs1 [2-thiophenecarboxylic acid hydrazide]
Settings | vapor or sublimation pressure
339.13 K | 0.000108 kPa and 0.000109 kPa
341.18 K | 0.000134 kPa and 0.000135 kPa
343.2 K | 0.000171 kPa and 0.000169 kPa and 0.000164 kPa
345.13 K | 0.000218 kPa and 0.000213 kPa and 0.000219 kPa
347.18 K | 0.000273 kPa and 0.000274 kPa and 0.000262 kPa
349.19 K | 0.00033 kPa and 0.00034 kPa and 0.000323 kPa
351.13 K | 0.000414 kPa and 0.000423 kPa and 0.000404 kPa
353.18 K | 0.000519 kPa and 0.00052 kPa and 0.000497 kPa
355.19 K | 0.000637 kPa and 0.000628 kPa and 0.000622 kPa
357.12 K | 0.000786 kPa and 0.000787 kPa and 0.000763 kPa
359.15 K | 0.000977 kPa and 0.000971 kPa and 0.000942 kPa
361.18 K | 0.001194 kPa and 0.001173 kPa and 0.001154 kPa

NNC(=O)c1ccco1 [2-furoic acid hydrazide]
Settings | vapor or sublimation pressure
309.15 K | 0.0001487 kPa and 0.0001459 kPa and 0.0001436 kPa
311.15 K | 0.0001928 kPa and 0.0001919 kPa and 0.0001872 kPa
313.14 K | 0.0002436 kPa and 0.0002335 kPa and 0.0002348 kPa
315.14 K | 0.0003144 kPa and 0.0003082 kPa and 0.0003114 kPa
317.13 K | 0.0003943 kPa and 0.0003803 kPa and 0.0003744 kPa
319.15 K | 0.0005068 kPa and 0.0004916 kPa and 0.0004795 kPa
321.14 K | 0.0006091 kPa and 0.0006111 kPa and 0.0005851 kPa
323.16 K | 0.0007862 kPa and 0.0007814 kPa and 0.0007812 kPa
325.15 K | 0.0009687 kPa and 0.0009579 kPa and 0.0009504 kPa

— the NIST ThermoML archive (doi:10.1016/j.jct.2008.06.011)
